In patent US20050203124A1, “Compounds for the sustained reduction of body weight” (Boehringer Ingelheim International GmbH, priority 2004, published 2005):

Assay: Clinical studies: monitoring of body weight (vital sign) under multiple ascending doses
Assay type: in vivo, patients
Source text: Clinical Studies have been carried out in order to compare the maintenance doses of the compounds of formula IA, including its metabolite IB, that were used in 3 studies.
The studies were randomized, double-blind, placebo-controlled per ascending dose group. The studies were designed to assess the safety, tolerability, phamacokinetics (PK), and preliminary efficacy of multiple ascending doses of the compound of formula IA in patients with possible Alzheimer's Disease (AD).
Two studies were performed consecutively with 0.125/0.25 and 0.5/1.0 mg of the compound of formula IA daily every morning to assess the safety and preliminary efficacy of multiple given for 28 days in those patients. After the completion of the first two studies a […] was initiated in elderly volunteers in order to investigate the safety and PK of a median dose of 0.75 mg of the compound of formula IA daily in the morning than were used in the first two studies. Depending on the maintenance dose an at least double loading dose was administrated for up to 6 days.
To determine the safety, tolerability of ascending multiple doses of the compound of formula IA (5 dose levels) given for 28 days, and to determine the preliminary multiple dose (4-week) pharmacokinetics (PK) of the compound of formula IA. […]

CCOC[C@H]1C2CCC(C[C@@H]1c1ccc(Cl)c(Cl)c1)N2C (some centres unmarked) [Compound of formula IA]
body weight under treatment (change in weight, FIGS. 3 and 4) (patients with possible Alzheimer's Disease / elderly volunteers, aged 55 to 80, 0.125 to 1.0 mg daily for 28 days, placebo-controlled): clearly reduces the bodyweight
body weight after the treatment has been stopped (change in weight, FIGS. 5 and 6) (same studies, follow-up 56 to 70 days after beginning of the 28-day treatment): still further reduced
